Assay results published in US12724175B2, “Contact lens with optical prophylaxis” (High Performance Optics, Inc., priority 2021, dated 2026).
Read-outs that look alike come from different tables or passages of the source.

How the values were obtained:
[1] = Stability under simulated photocuring conditions (450 nm LED, photoinitiator); type: physicochemical
Description: (§1) The stabilities of exemplary compounds 8 and 9 were evaluated under various conditions in the presence of initiator and monomer under curing conditions in comparison with copper tetraphenylporphyrin (Cu-TPP) and zinc tetraphenylporphyrin (Zn-TPP) as controls.
Experimental Procedure for Photo-Curing System:
• (A) for Stability Test without Monomers • 1. Parent solution: Dimethylacetamide (DMAC) solutions (200-500 ppm) of corresponding porphyrins, namely ZnTPP (200 ppm), CuTPP (200 ppm), Cu-TBP-Am (500 ppm), and Cu-TBP-MAm (500 ppm) were prepared in amber glass vial. The solutions were allowed to stir at room temperature for about 0.5 hour to provide homogeneous solutions. Photoinitiator (0.6 wt %) was added to each solution (under yellow light), and the solution was stirred for another 1 hour. • 2. Solution “BEFORE” Thermal Treatment & UV-VIS Measurement: The solution was transferred into 100 μm quartz cell and UV-Vis spectra were recorded using Perkin Elmer Lambda 850 UV-Vis Spectrophotometer. The spectrum was regarded as “before”. • 3. Photocuring of Parent Solution: Each quartz cell was exposed to 450 nm LED light with intensity of 55 mW/cm^2 for 30 s. • 4. Solution “AFTER” photocuring & UV-VIS Measurement: UV-Vis spectra of solutions in 100 μm quartz cell exposed to LED light were recorded using Perkin Elmer Lambda 850 UV-Vis Spectrophotometer. The spectrum was regarded as “after”. • 5. % T Calculation: % Loss is expressed as % T increase at the specific wavelength of Soret band for each porphyrin solution. • (B) For Stability Test with Monomers • 1. Parent solution: Cu-TBP-Am and Cu-TBP-MAm were dissolved in DMA (30 wt %), TRIS (30 wt %) and 1-PrOH (40 wt %) in amber glass vial to afford 500 ppm porphyrin solutions. The solutions were allowed to stir at room temperature for about 0.5 hour to provide homogeneous solutions. Photoinitiator (0.6 wt %) was added to each solution (under yellow light), and the solution was stirred for another 1 hour. • 2. Solution “BEFORE” Thermal Treatment & UV-VIS Measurement: The solution was transferred into 100 μm quartz cell and UV-Vis spectra were recorded using Perkin Elmer Lambda 850 UV-Vis Spectrophotometer. The spectrum was regarded as “before”. • 3. Photocuring of Parent Solution: Each quartz cell was exposed to 450 nm LED light with intensity of 55 mW/cm^2 for 30 s. • 4. Solution “AFTER” photocuring & UV-VIS Measurement: UV-Vis spectra of solutions in 100 μm quartz cell exposed to LED light were recorded using Perkin Elmer Lambda 850 UV-Vis Spectrophotometer. The spectrum was regarded as “after”. • 5. % T Calculation: % Loss is expressed as % T increase at the specific wavelength of Soret band for each porphyrin solution. Experimental Procedure for Thermal-Curing System: • (A) for Stability Test without Monomers • 1. Parent solution: Dimethylacetamide (DMAC) solutions (500 ppm) of corresponding porphyrins, namely ZnTPP, CuTPP, Cu-TBP-Am, and Cu-TBP-MAm were prepared in amber glass vial. The solutions were allowed to stir at room temperature for about 0.5 hours to provide homogeneous solutions. Vazo 64 (0.5 wt %) was added to each solution, and the solution was stirred for another 10 minutes. Each solution was bubbled with nitrogen for 5 minutes to remove oxygen. • 2. […] The solution was transferred into 1 cm quartz cell and UV-Vis spectra were recorded using Perkin Elmer Lambda 850 UV-Vis Spectrophotometer. […]

[2] = UV-visible transmittance, molar extinction coefficient of Soret band; type: physicochemical; conditions: concentrations 300 to 1000 ppm
Description: ^1H-NMR spectra were recorded on Bruker 600 MHz spectrometer. CD3OD (Methanol-d3) and DMSO-d6 (Dimethyl sulfoxide-d6) were used as solvents. UPLC of porphyrins was acquired on ACQUITY UPLC H-Class PLUS UPLC with Waters PDA detector, using Phenomenex Jupiter® 5 μm C18 300 Å, LC Column (150×2.0 mm). LC-MS of porphyrins was acquired on The Thermo Scientific™ Q Exactive™ HF hybrid quadrupole-Orbitrap mass spectrometer, using Phenomenex Aeris™ 3.6 μm WIDEPORE C4 200 Å, LC Column (50×2.1 mm). UV-vis spectra were obtained on Perkin Elmer Lambda 850 UV-Vis Spectrophotometer.
(§2) Compound 8 also characterized by UV-visible transmittance at concentrations ranging from 300 to 1000 ppm (FIG. 15). Molar extinction coefficients of 490,000-544,000 M-1 cm-1 for Soret band are in agreement with literature values for similar metallated porphyrins (Taniguchi, M.; Lindsey, J. S. Photochemistry and Photobiology, 2018, 94, 290-327).
as §2, with “Compound 9” for “Compound 8”, “(FIG. 16).” for “(FIG. 15).”, “490,000-544,000 M^−1 cm^−1” for “490,000-544,000 M-1 cm-1”

[3] = Solubility studies at 500 ppm in solvent, monomers and simulated formulation
Description: The solubilities of exemplary compounds 8 and 9 were evaluated in various solvent systems in comparison with copper tetraphenylporphyrin (Cu-TPP) as a control.
• 1. Weigh 3 to 4 mg of the Copper porphyrin compound into an 8 mL scintillation vial • 2. In the case of one solvent or monomer, dilute to 500 ppm with the solvent or monomer, add a stir bar, and stir mixture overnight. • 3. In the case of multiple solvents, add the best solvent for the copper porphyrin first, add a stir bar and stir for 1 hour. Add the other solvents and stir overnight. • 4. Evaluate solution miscibility after stirring overnight.

[4] = Stability under simulated thermal curing conditions (Vazo 64, 80° C., 2 hours); type: physicochemical; conditions: 500 ppm, Vazo 64 0.5 wt %; for Stability under simulated thermal curing, without monomers: DMAC
Description: as §1
• (A) for Stability Test without Monomers • 1. Parent solution: Dimethylacetamide (DMAC) solutions (200-500 ppm) of corresponding porphyrins, namely ZnTPP (200 ppm), CuTPP (200 ppm), Cu-TBP-Am (500 ppm), and Cu-TBP-MAm (500 ppm) were prepared in amber glass vial. The solutions were allowed to stir at room temperature for about 0.5 hour to provide homogeneous solutions. Photoinitiator (0.6 wt %) was added to each solution (under yellow light), and the solution was stirred for another 1 hour. • 2. Solution “BEFORE” Thermal Treatment & UV-VIS Measurement: The solution was transferred into 100 μm quartz cell and UV-Vis spectra were recorded using Perkin Elmer Lambda 850 UV-Vis Spectrophotometer. The spectrum was regarded as “before”. • 3. […] Solution “AFTER” photocuring & UV-VIS Measurement: UV-Vis spectra of solutions in 100 μm quartz cell exposed to LED light were recorded using Perkin Elmer Lambda 850 UV-Vis Spectrophotometer. The spectrum was regarded as “after”. • 5. % T Calculation: % Loss is expressed as % T increase at the specific wavelength of Soret band for each porphyrin solution. • (B) For Stability Test with Monomers • 1. […] Solution “BEFORE” Thermal Treatment & UV-VIS Measurement: The solution was transferred into 100 μm quartz cell and UV-Vis spectra were recorded using Perkin Elmer Lambda 850 UV-Vis Spectrophotometer. […] Solution “AFTER” photocuring & UV-VIS Measurement: UV-Vis spectra of solutions in 100 μm quartz cell exposed to LED light were recorded using Perkin Elmer Lambda 850 UV-Vis Spectrophotometer. The spectrum was regarded as “after”. • 5. % T Calculation: % Loss is expressed as % T increase at the specific wavelength of Soret band for each porphyrin solution. […] The solution was transferred into 1 cm quartz cell and UV-Vis spectra were recorded using Perkin Elmer Lambda 850 UV-Vis Spectrophotometer. […]

[5] = DMAC, photoinitiator 0.6 wt %, 450 nm LED 55 mW/cm^2 for 30 s
[6] = 500 ppm, 1-Propanol, stirred overnight
[7] = 500 ppm, monomer DMA, stirred overnight
[8] = 500 ppm, monomer HEMA, stirred overnight
[9] = 500 ppm, simulated formulation 1-PrOH/DMA/TRIS (1:1:1)
[10] = 500 ppm, simulated formulation 1-PrOH/DMA/TRIS/Silicone oil (1:1:1:1)

| Molecule | Stability (% T increase at Soret band) under simulated photocuring, without monomers [1] | Molar extinction coefficients for Soret band [2] | Solubility [3] | Stability under simulated thermal curing, with monomers ([4]; DMA/TRIS/1-PrOH) | Stability under simulated thermal curing, without monomers [4] | Stability (% T increase at Soret band) under simulated photocuring, with monomers ([1]; DMA/TRIS/1-PrOH, 500 ppm, photoinitiator 0.6 wt %, 450 nm LED 55 mW/cm^2 for 30 s) | Stability (% T increase at Soret band) under simulated photocuring, without monomers [1, 5] | Solubility [3, 6] | Solubility [3, 7] | Solubility [3, 8] | Solubility [3, 9] | Solubility [3, 10] |
| --- | --- | --- | --- | --- | --- | --- | --- | --- | --- | --- | --- | --- |
| C=C(C)C(=O)NCCC[N+](C)(C)Cc1ccc(/C2=C3\C=CC(=N3)/C(c3ccc(C[N+](C)(C)CCCNC(=O)C(=C)C)cc3)=c3/cc/c4[n]3[Cu][n]3c2ccc3/C(c2ccc(C[N+](C)(C)CCCNC(=O)C(=C)C)cc2)=C2/C=CC(=N2)\C=4c2ccc(C[N+](C)(C)CCCNC(=O)C(=C)C)cc2)cc1 [Compound 8, Cu(II) tetra-(dimethylaminopropylmethacrylamidophenyl) porphine tetrabromide] | show % T increase | 490,000-544,000 M^−1 cm^−1 | Soluble | – | – | – | – | – | – | – | – | – |
| C=CC(=O)NCCC[N+](C)(C)Cc1ccc(/C2=C3\C=CC(=N3)/C(c3ccc(C[N+](C)(C)CCCNC(=O)C=C)cc3)=c3/cc/c4[n]3[Cu][n]3c2ccc3/C(c2ccc(C[N+](C)(C)CCCNC(=O)C=C)cc2)=C2/C=CC(=N2)\C=4c2ccc(C[N+](C)(C)CCCNC(=O)C=C)cc2)cc1 [Compound 9, Cu(II) tetra-(dimethylaminopropylacrylamidophenyl) porphine tetrabromide] | – | 490,000-544,000 M^−1 cm^−1 | – | much better stability | much better stability | not observed | show % T increase | Soluble | Partially | Soluble | Soluble | Partially |
| C1=Cc2nc1c(-c1ccccc1)c1ccc([n-]1)c(-c1ccccc1)c1nc(c(-c3ccccc3)c3ccc([n-]3)c2-c2ccccc2)C=C1.[Zn+2] [ZnTPP, zinc tetraphenylporphyrin, reference compound] | – | – | – | – | difference is not observed | – | CuTPP is significantly more stable than ZnTPP | – | – | – | – | – |
| copper tetraphenylporphyrin [Cu-TPP, reference compound] | significantly more stable than ZnTPP | – | – | – | – | – | – | Insoluble | Soluble | Insoluble | Insoluble | Insoluble |
